Results reported in ChEMBL document CHEMBL3632570, “Structure-Guided Design of Novel l-Cysteine Derivatives as Potent KSP Inhibitors” (ACS Med Chem Lett, 2015).
The source made the active and inactive calls. The calls are words filed in the database; no cut-off is given here.

Tests used:
[1] = biological target: T1, Kinesin-like protein KIF11 (Homo sapiens, UniProt P52732); assay: Inhibition of His-tagged KSP motor domain (1 to 369) (unknown origin) assessed as inhibition of microtubule-stimulated KSP ATPase activity preincuabted for 30 mins followed by ATP addition measured after 15 mins by Kinase-Glo assay
T1 sequence (P52732 whole entry): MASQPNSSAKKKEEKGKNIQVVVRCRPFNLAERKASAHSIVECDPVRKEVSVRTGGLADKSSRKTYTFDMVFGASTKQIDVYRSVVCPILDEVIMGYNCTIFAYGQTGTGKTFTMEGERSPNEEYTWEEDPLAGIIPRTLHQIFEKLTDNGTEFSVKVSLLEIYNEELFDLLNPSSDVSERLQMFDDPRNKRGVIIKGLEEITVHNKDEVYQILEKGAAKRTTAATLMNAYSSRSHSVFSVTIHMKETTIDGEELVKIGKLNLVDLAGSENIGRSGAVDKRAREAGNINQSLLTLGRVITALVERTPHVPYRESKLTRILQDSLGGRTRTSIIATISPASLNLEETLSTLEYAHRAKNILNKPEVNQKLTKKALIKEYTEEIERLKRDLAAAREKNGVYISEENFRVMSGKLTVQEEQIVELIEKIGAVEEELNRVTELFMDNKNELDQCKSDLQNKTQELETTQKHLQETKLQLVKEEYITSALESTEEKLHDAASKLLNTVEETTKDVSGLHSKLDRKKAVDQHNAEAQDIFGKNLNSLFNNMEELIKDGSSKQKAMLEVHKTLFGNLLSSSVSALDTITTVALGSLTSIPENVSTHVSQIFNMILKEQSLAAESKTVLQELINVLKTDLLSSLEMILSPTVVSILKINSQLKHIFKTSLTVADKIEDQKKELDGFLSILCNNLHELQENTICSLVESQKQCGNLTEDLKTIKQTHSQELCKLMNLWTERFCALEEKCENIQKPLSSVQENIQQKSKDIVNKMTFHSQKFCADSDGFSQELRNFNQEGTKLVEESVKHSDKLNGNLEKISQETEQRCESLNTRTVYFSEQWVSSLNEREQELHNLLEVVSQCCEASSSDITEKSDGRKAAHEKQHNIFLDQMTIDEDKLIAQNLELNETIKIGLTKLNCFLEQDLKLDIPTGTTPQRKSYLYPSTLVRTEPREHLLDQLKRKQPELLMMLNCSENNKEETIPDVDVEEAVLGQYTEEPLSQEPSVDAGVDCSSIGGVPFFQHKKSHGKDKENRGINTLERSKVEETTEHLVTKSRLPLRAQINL

[2] = system: HCT-116; assay: Growth inhibition of human HCT116 cells after 72 hrs by MTS assay; format: functional, cell-based; settings: HCT-116, 72 h
[3] = biological target: T2, Kinesin-like protein KIF11 (Homo sapiens) (UniProt P52732)
T2 sequence (whole entry): T1 sequence (P52732 whole entry)
Description: Binding affinity to KSP motor domain (unknown origin) assessed as change in melting temperature at 100 uM by differential scanning fluorimetry in presence of 1 mM ATP

[4] = system: Mus musculus; assay: Toxicity in athymic nude BALB/cAJcL mouse xenografted with HCT116 cells assessed as mortality at 25 mg/kg, iv administered on days 1,3,5,8,10 and 12; format: organism-based, HCT-116; settings: in vivo
[5] = system: HCT-116; assay: Antitumor activity against human HCT116 cells xenografted in athymic nude BALB/cAJcL mouse assessed as inhibition of tumor growth at 25 mg/kg, iv administered on days 1,3,5,8,10 and 12 measured on day 15; format: functional
[6] = system: HCT-116; assay: Antitumor activity against human HCT116 cells xenografted in athymic nude BALB/cAJcL mouse assessed as inhibition of tumor growth at 10 mg/kg, iv administered on days 1,3,5,8,10 and 12 measured on day 15; format: functional
[7] = system: HCT-116; assay: Antitumor activity against human HCT116 cells xenografted in iv dosed athymic nude BALB/cAJcL mouse assessed as inhibition of tumor growth drug administered on days 1,3,5,8,10 and 12 measured on day 15; format: functional, organism-based
[8] = system: HeLa; assay: Cell cycle arrest at mitotic phase in human HeLa cells assessed as mitotic index after 6 hrs; format: functional
[9] = system: Mus musculus; assay: Toxicity in athymic nude BALB/cAJcL mouse xenografted with HCT116 cells assessed as mortality at 10 mg/kg, iv administered on days 1,3,5,8,10 and 12; format: organism-based, HCT-116; settings: in vivo
[10] = system: HeLa; assay: Cell cycle arrest at mitotic phase in human HeLa cells assessed as formation of monopolar spindles at 40 nM after 6 hrs by DAPI staining-based microscopic analysis; format: functional
[11] = system: Mus musculus; assay: Toxicity in athymic nude BALB/cAJcL mouse xenografted with HCT116 cells assessed as body weight loss at 25 mg/kg, iv administered on days 1,3,5,8,10 and 12 relative to vehicle-treated control; format: organism-based, HCT-116; settings: in vivo
[12] = system: HCT-116; assay: Antitumor activity against human HCT116 cells xenografted in athymic nude BALB/cAJcL mouse assessed as inhibition of tumor growth at 150 mg/kg, iv administered on days 1,3,5,8,10 and 12 measured on day 15; format: functional
[13] = system: HCT-116; assay: Antitumor activity against human HCT116 cells xenografted in athymic nude BALB/cAJcL mouse assessed as inhibition of tumor growth at 75 mg/kg, iv administered on days 1,3,5,8,10 and 12 measured on day 15; format: functional
[14] = system: Mus musculus; assay: Toxicity in athymic nude BALB/cAJcL mouse xenografted with HCT116 cells assessed as mortality at 75 mg/kg, iv administered on days 1,3,5,8,10 and 12; format: organism-based, HCT-116; settings: in vivo
[15] = system: Mus musculus; assay: Toxicity in athymic nude BALB/cAJcL mouse xenografted with HCT116 cells assessed as mortality at 150 mg/kg, iv administered on days 1,3,5,8,10 and 12; format: organism-based, HCT-116; settings: in vivo

| SMILES | IC50 [1] [nM] | IC50 [2] [nM] | also measured |
| --- | --- | --- | --- |
| N[C@@H](CSC1(c2ccccc2)c2ccccc2CCSc2ccccc21)C(=O)O (mixture of isomers) | > 20000 | > 10000 | – |
| CC(C)(C)c1ccc(C2(SC[C@H](N)C(=O)O)c3ccccc3CCc3ccccc32)cc1 | 301 | 234 | – |
| N[C@@H](CSC(c1ccccc1)(c1ccccc1)c1ccccc1)C(=O)O [S-TRITYL-L-CYSTEINE] | – | 910 | – |
| COc1ccc(C(SC[C@H](N)C(=O)O)(c2ccccc2)c2ccccc2)cc1 | – | 213 | ΔTm [3]: 9 °C |
| N[C@@H](CSC1(c2cccc(C(F)(F)F)c2)c2ccccc2CCc2ccccc21)C(=O)O | 238 | 123 | – |
| COc1ccc(C2(SC[C@H](N)C(=O)O)c3ccccc3C=Cc3ccccc32)cc1 | 8.6 | 2.6 | ΔTm [3]: 12.5 °C |
| Cc1ccc(C2(SC[C@H](N)C(=O)O)c3ccccc3C=Cc3ccccc32)cc1 | 14 | 3.4 | – |
| N[C@@H](CSC1(c2ccc(-c3ccccc3)cc2)c2ccccc2C=Cc2ccccc21)C(=O)O | 1400 | 395 | – |
| Cc1ccc(C(=O)N(CCCN)[C@@H](c2nc3cc(Cl)ccc3c(=O)n2Cc2ccccc2)C(C)C)cc1 [ISPINESIB] | – | 1.1 | – |
| N[C@@H](CSC1(c2ccc(C(F)(F)F)cc2)c2ccccc2C=Cc2ccccc21)C(=O)O | 36 | 5 | Activity [4]: Non-toxic; T/C [5]: 12%; T/C [6]: 31%; TGI [7]: Dose-dependent effect; MI50 [8]: 12 nM; Activity [9]: Non-toxic; Activity [10]: Active |
| Cc1ccccc1C1(SC[C@H](N)C(=O)O)c2ccccc2CCc2ccccc21 | 7800 | 4590 | – |
| N[C@@H](CSC1(c2ccc(Cl)cc2)c2ccccc2C=Cc2ccccc21)C(=O)O | 12 | 3.9 | – |
| N[C@@H](CSC1(c2ccc(C(F)(F)F)cc2)c2ccccc2CSc2ccccc21)C(=O)O (mixture of isomers) | 61 | 15 | – |
| N[C@@H](CSC1(c2ccc(Cl)cc2)c2ccccc2CCc2ccccc21)C(=O)O | 11 | 41 | Activity [4]: Non-toxic; T/C [5]: 11%; Activity [11]: Toxic |
| CON(C)C(=O)N1N=C(c2cc(F)ccc2F)S[C@@]1(CCCN)c1ccccc1 [FILANESIB] | 18 | 0.7 | – |
| N[C@@H](CSC1(c2ccc(C(F)(F)F)cc2)c2ccccc2Sc2ccccc21)C(=O)O | > 20000 | > 10000 | – |
| N[C@@H](CSC1(c2ccc(C(F)(F)F)cc2)c2ccccc2COc2ccccc21)C(=O)O (mixture of isomers) | 75 | 76 | – |
| N[C@@H](CSC1(c2cccc(Cl)c2)c2ccccc2CCc2ccccc21)C(=O)O | 160 | 637 | – |
| N[C@@H](CSC1(c2ccc(C(F)(F)F)cc2)c2ccccc2Oc2ccccc21)C(=O)O | > 20000 | > 10000 | – |
| N[C@@H](CSC1(c2ccc(Oc3ccccc3)cc2)c2ccccc2CCc2ccccc21)C(=O)O | 306 | 291 | – |
| Cc1ccc(C2(SC[C@H](N)C(=O)O)c3ccccc3CCc3ccccc32)cc1 | 9.3 | 25 | Activity [4]: Non-toxic; T/C [5]: 19% |
| N[C@@H](CSC(c1ccccc1)(c1ccccc1)c1ccc(C(F)(F)F)cc1)C(=O)O | 262 | 216 | – |
| N[C@@H](CSC1(c2ccccc2)c2ccccc2CCc2ccccc21)C(=O)O | 209 | 325 | ΔTm [3]: 8 °C; Activity [4]: Non-toxic; T/C [5]: 62%; Activity [11]: Toxic; T/C [12]: 23%; T/C [13]: 43%; Activity [14]: Non-toxic; TGI [7]: Dose-dependent effect; Activity [15]: Non-toxic |
| N[C@@H](CSC1(c2ccc(-c3ccccc3)cc2)c2ccccc2CCc2ccccc21)C(=O)O | 1060 | 1300 | – |
